Data reported in the supplement of paper PMC10307832.

Experiments:
Test in all cases: relative viability (nuclei count vs DMSO), 5 days (fraction); higher = more cells survive
Midostaurin + Tozasertib = compound: CO[C@@H]1[C@H](N(C)C(=O)c2ccccc2)C[C@H]2O[C@]1(C)n1c3ccccc3c3c4c(c5c6ccccc6n2c5c31)C(=O)NC4 [Midostaurin] + Cc1cc(Nc2cc(N3CCN(C)CC3)nc(Sc3ccc(NC(=O)C4CC4)cc3)n2)n[nH]1 [Tozasertib] (partner 0.1 µM)
Method in brief: (§1)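 Lung cancer cell lines in 1536-well plates got either a single drug or a fixed anchor-drug dose together with five library-drug doses (not always all listed) in √10 steps, by pin tool, on the day after seeding. Nuclei were counted after 5 days, and relative viability is the treated-to-vehicle ratio of nuclei counts. Values are medians of duplicate plates.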

Midostaurin + Olaparib = compound: CO[C@@H]1[C@H](N(C)C(=O)c2ccccc2)C[C@H]2O[C@]1(C)n1c3ccccc3c3c4c(c5c6ccccc6n2c5c31)C(=O)NC4 [Midostaurin] + O=C(c1cc(Cc2n[nH]c(=O)c3ccccc23)ccc1F)N1CCN(C(=O)C2CC2)CC1 [Olaparib] (partner 8 µM)
Method in brief: as §1

[1] = compound: COc1cc(-c2nn([C@H]3CC[C@H](N4CCN(C(C)=O)CC4)CC3)c3ncnc(N)c23)ccc1NC(=O)c1cc2ccccc2n1C + CC(=O)c1c(C)c2cnc(Nc3ccc(N4CCNCC4)cn3)nc2n(C2CCCC2)c1=O [Palbociclib] (partner 0.5 µM)
Method in brief: as §1

[2] = compound: COc1cc(-c2nn([C@H]3CC[C@H](N4CCN(C(C)=O)CC4)CC3)c3ncnc(N)c23)ccc1NC(=O)c1cc2ccccc2n1C + CC1(C)CCC(c2ccc(Cl)cc2)=C(CN2CCN(c3ccc(C(=O)NS(=O)(=O)c4ccc(N[C@H](CCN5CCOCC5)CSc5ccccc5)c(S(=O)(=O)C(F)(F)F)c4)cc3)CC2)C1 [Navitoclax] (partner 0.5 µM)
Method in brief: as §1

[3] = compound: COc1cc(-c2nn([C@H]3CC[C@H](N4CCN(C(C)=O)CC4)CC3)c3ncnc(N)c23)ccc1NC(=O)c1cc2ccccc2n1C + C[C@]1(O)C[C@@H](c2nc(-c3ccc4ccc(-c5ccccc5)nc4c3)c3c(N)nccn32)C1 [Linsitinib] (partner 1 µM)
Method in brief: as §1

Cell Line | relative viability (Midostaurin + Tozasertib; first compound 0.01 µM) | relative viability (Midostaurin + Tozasertib; first compound 0.03162 µM) | relative viability (Midostaurin + Tozasertib; first compound 0.1 µM) | relative viability (Midostaurin + Tozasertib; first compound 0.3162 µM) | relative viability (Midostaurin + Olaparib; first compound 0.01 µM) | relative viability (Midostaurin + Olaparib; first compound 0.03162 µM) | relative viability (Midostaurin + Olaparib; first compound 0.1 µM) | relative viability (Midostaurin + Olaparib; first compound 0.3162 µM) | relative viability ([1]; first compound 0.0128 µM) | relative viability ([1]; first compound 0.04048 µM) | relative viability ([1]; first compound 0.128 µM) | relative viability ([1]; first compound 1.28 µM) | relative viability ([2]; first compound 0.0128 µM) | relative viability ([2]; first compound 0.04048 µM) | relative viability ([2]; first compound 0.128 µM) | relative viability ([2]; first compound 1.28 µM) | relative viability ([3]; first compound 0.0128 µM) | relative viability ([3]; first compound 0.04048 µM) | relative viability ([3]; first compound 0.128 µM) | relative viability ([3]; first compound 1.28 µM)
NCI-H1975 | 0.732 | 0.763 | 0.716 | 0.37 | 0.733 | 0.677 | 0.701 | 0.466 | 0.534 | 0.541 | 0.513 | 0.23 | 1.11 | 1.17 | 1.08 | 0.697 | 0.872 | 1.06 | 0.837 | 0.407
CAL-12T | 0.345 | 0.27 | 0.266 | 0.215 | 0.76 | 0.585 | 0.681 | 0.633 | 0.485 | 0.277 | 0.459 | 0.24 | 1.2 | 1.41 | 1.27 | 1.44 | 0.851 | 0.533 | 0.801 | 0.74
NCI-H1623 | 0.445 | 0.481 | 0.433 | 0.446 | – | – | – | – | – | – | – | – | – | – | – | – | – | – | – | –
HCC-44 | – | 1.04 | 0.819 | 0.778 | 0.999 | 0.957 | 0.983 | 1 | 1.04 | 0.975 | 0.972 | 1.29 | 1.13 | 0.913 | 1.02 | 0.934 | 0.764 | 0.687 | 0.692 | 0.536
EKVX | 0.369 | 0.414 | 0.366 | 0.343 | 0.836 | 0.847 | 0.738 | 0.775 | 0.383 | 0.47 | 0.357 | 0.271 | 1.05 | 1.03 | 0.957 | 0.384 | 1.2 | 1.12 | 0.918 | 0.499
NCI-H1651 | 0.628 | 0.752 | 0.543 | 0.685 | 0.199 | 0.2 | 0.169 | 0.17 | 0.522 | 0.539 | 0.513 | 0.49 | 1.09 | 1.07 | 1.07 | 0.963 | 0.879 | 1.11 | 0.871 | 0.638
NCI-H1944 | 0.268 | 0.269 | 0.261 | 0.232 | 0.388 | 0.433 | 0.402 | 0.429 | 0.352 | 0.32 | 0.363 | 0.203 | 1.04 | 0.999 | 0.982 | 0.764 | 1.18 | 1.16 | 1.06 | 0.839
NCI-H1703 | – | – | – | – | 0.507 | 0.421 | 0.298 | 0.216 | – | – | – | – | 1.45 | 1.17 | 0.736 | 0.236 | 0.984 | 0.193 | 0.637 | 0.323
Calu-6 | – | – | – | – | 0.421 | 0.638 | 0.509 | 0.495 | – | – | – | – | 0.881 | 0.983 | 0.817 | 0.722 | 0.901 | 0.657 | 0.858 | 0.785
